The results in this text go back to patent US20120122924A1, “NAMPT INHIBITORS” (ABBOTT LABORATORIES, priority 2010, published 2012).

pIC50: −log10 of the molar value.

Sequence of recombinant, human, C-terminally-His tagged NAMPT (P43490 whole entry): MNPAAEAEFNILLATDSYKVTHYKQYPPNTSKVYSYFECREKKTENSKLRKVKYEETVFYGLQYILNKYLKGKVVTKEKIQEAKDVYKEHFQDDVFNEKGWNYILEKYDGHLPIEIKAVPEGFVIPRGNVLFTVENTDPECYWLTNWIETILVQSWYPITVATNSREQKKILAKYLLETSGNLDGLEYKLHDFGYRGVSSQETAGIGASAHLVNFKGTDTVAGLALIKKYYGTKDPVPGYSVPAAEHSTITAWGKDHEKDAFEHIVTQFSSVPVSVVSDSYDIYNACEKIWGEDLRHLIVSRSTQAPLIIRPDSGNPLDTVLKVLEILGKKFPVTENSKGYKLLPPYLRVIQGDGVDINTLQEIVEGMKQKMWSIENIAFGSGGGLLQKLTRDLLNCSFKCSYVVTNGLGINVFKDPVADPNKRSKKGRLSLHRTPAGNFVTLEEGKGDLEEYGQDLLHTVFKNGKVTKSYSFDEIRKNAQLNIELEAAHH

For this test, the target named is recombinant, human, C-terminally-His tagged NAMPT (Homo sapiens, UniProt P43490). Briefly: Time-Resolved Fluorescence Resonance Energy Transfer (TR-FRET) binding assay of NAMPT. Particulars: 6.8 nM NAMPT, 200 nM probe (Oregon Green 488-conjugated APO866), 1 nM Tb-anti-His antibody, 2-3 hours. As for the experimental part:
Determination of the utility of compounds having Formula (I) as binders to and inhibitors of NAMPT was performed using a Time-Resolved Fluorescence Resonance Energy Transfer (TR-FRET) binding assay.
Time-Resolved Fluorescence Resonance Energy Transfer (TR-FRET) Binding Assay of NAMPT
The assay was carried out in 18 uL low volume plates (Owens Corning) in reaction buffer (50 mM HEPES (NaOH), pH 7.5, 100 mM NaCl, 10 mM MgCl2, 1 mM DTT, 1% Glycerol) using 6.8 nM recombinant, human, C-terminally-His tagged NAMPT, 1 nM Tb-anti-His antibody (Invitrogen, Cat # PV5895), and 200 nM probe (Oregon Green 488-conjugated APO866; A-1251667.0). Plates were covered, and reactions were carried out for 2-3 hours. Plates were read with Envision (Laser Lantha low volume protocol) after 2 to 3 hours. Excitation was carried out at 337 nm, and the ratio of emission of Oregon Green (520 nm) to terbium (492 nm) was determined and used to calculate IC50 values of test compounds.
As for `O=C(NCCCc1ccccc1)c1ccc(NC(=O)N2CCc3ccccc3C2)nc1` [Example 9, N-{5-[(3-phenylpropyl)carbamoyl]pyridin-2-yl}-3,4-dihydroisoquinoline-2(1H)-carboxamide], the pIC50 was 7.54.

`CC(C)C(=O)N1CC=C(c2ccc(NC(=O)N3CCc4ccccc4C3)cc2)CC1` [Example 46, N-[4-(1-isobutyryl-1,2,3,6-tetrahydropyridin-4-yl)phenyl]-3,4-dihydroisoquinoline-2(1H)-carboxamide]: the negative logarithm of the IC50 (pIC50) was 7.82.

Take `CS(=O)(=O)N1CC=C(c2ccc(NC(=O)N3CCc4ccccc4C3)cc2)CC1` [Example 53, N-{4-[1-(methylsulfonyl)-1,2,3,6-tetrahydropyridin-4-yl]phenyl}-3,4-dihydroisoquinoline-2(1H)-carboxamide]: the pIC50 is 6.95.

For the compound `O=C(Nc1ccc(NC(=O)N2CCc3ccccc3C2)cc1)c1ccoc1` [Example 83, N-[4-(3-furoylamino)phenyl]-3,4-dihydroisoquinoline-2(1H)-carboxamide], the negative-log IC50 (pIC50) was 6.57.

On to `O=C(NCCCc1ccccc1)c1ccc(NC(=O)N2CCc3cc(F)ccc3C2)cc1` [Example 3, 6-fluoro-N-{4-[(3-phenylpropyl)carbamoyl]phenyl}-3,4-dihydroisoquinoline-2(1H)-carboxamide], for which the negative-log IC50 (pIC50) was 7.86.

On to `CC(C)CCNC(=O)c1ccc(NC(=O)N2CCc3ccncc3C2)cc1` [Example 28, N-{4-[(3-methylbutyl)carbamoyl]phenyl}-3,4-dihydro-2,7-naphthyridine-2(1H)-carboxamide], for which the negative-log IC50 (pIC50) was 5.90.

Take `O=C(NCCc1cccs1)c1ccc(NC(=O)N2CCc3ccccc3C2)nc1` [Example 19, N-(5-{[2-(2-thienyl)ethyl]carbamoyl}pyridin-2-yl)-3,4-dihydroisoquinoline-2(1H)-carboxamide]: the negative logarithm of the IC50 (pIC50) was 6.71.

With `O=C(CCN1CCOCC1)Nc1ccc(NC(=O)N2CCc3ccccc3C2)cc1` [Example 95, N-(4-{[3-(morpholin-4-yl)propanoyl]amino}phenyl)-3,4-dihydroisoquinoline-2(1H)-carboxamide], the negative-log IC50 (pIC50) was 6.80.

As to `Cc1cc(C(=O)Nc2ccc(NC(=O)N3CCc4ccccc4C3)cc2)c(C)o1` [Example 84, N-{4-[(2,5-dimethyl-3-furoyl)amino]phenyl}-3,4-dihydroisoquinoline-2(1H)-carboxamide], the negative logarithm of the IC50 (pIC50) is 7.07.

`O=C(Cc1ccc(NC(=O)N2CCc3ccccc3C2)cc1)NCCCc1ccccc1` [Example 27, N-(4-{2-oxo-2-[(3-phenylpropyl)amino]ethyl}phenyl)-3,4-dihydroisoquinoline-2(1H)-carboxamide]: the negative-log IC50 (pIC50) is 5.99.

As for `C[C@@H](O)Cn1cc(-c2ccc(NC(=O)N3CCc4ccccc4C3)cc2)cn1` [Example 36, N-{4-[1-((2R)-2-hydroxypropyl)-1H-pyrazol-4-yl]phenyl}-3,4-dihydroisoquinoline-2(1H)-carboxamide], the pIC50 is 6.73.

Regarding `COCCOCC(=O)Nc1ccc(NC(=O)N2CCc3ccccc3C2)cc1` [Example 74, N-(4-{[(2-methoxyethoxy)acetyl]amino}phenyl)-3,4-dihydroisoquinoline-2(1H)-carboxamide], the negative-log IC50 (pIC50) is 7.06.

For `O=C(NCCCc1ccccc1)c1ccc(NC(=O)N2CCc3cnccc3C2)cc1` [Example 4, N-{4-[(3-phenylpropyl)carbamoyl]phenyl}-3,4-dihydro-2,6-naphthyridine-2(1H)-carboxamide], the pIC50 was 7.82.

Take `O=C(NCCc1cccs1)c1ccc(NC(=O)N2CCc3cc(F)ccc3C2)cc1` [Example 13, 6-fluoro-N-(4-{[2-(2-thienyl)ethyl]carbamoyl}phenyl)-3,4-dihydroisoquinoline-2(1H)-carboxamide]: the pIC50 is 7.34.

Regarding `CC(C)S(=O)(=O)N1CC=C(c2ccc(NC(=O)N3CCc4ccccc4C3)cc2)CC1` [Example 45, N-{4-[1-(isopropylsulfonyl)-1,2,3,6-tetrahydropyridin-4-yl]phenyl}-3,4-dihydroisoquinoline-2(1H)-carboxamide], the negative logarithm of the IC50 (pIC50) was 7.86.

Take `CC(C)Cn1cc(-c2ccc(NC(=O)N3CCc4ccccc4C3)cc2)cn1` [Example 34, N-[4-(1-isobutyl-1H-pyrazol-4-yl)phenyl]-3,4-dihydroisoquinoline-2(1H)-carboxamide]: the pIC50 is 7.41.

Consider `CCC(C)(C)C(=O)Nc1ccc(NC(=O)N2CCc3ccccc3C2)cc1` [Example 70, N-{4-[(2,2-dimethylbutanoyl)amino]phenyl}-3,4-dihydroisoquinoline-2(1H)-carboxamide], for which the negative-log IC50 (pIC50) was 6.96.

`CC(=O)N1CCC(C(=O)Nc2ccc(NC(=O)N3CCc4ccccc4C3)cc2)CC1` [Example 65, N-(4-{[(1-acetylpiperidin-4-yl)carbonyl]amino}phenyl)-3,4-dihydroisoquinoline-2(1H)-carboxamide]: the negative logarithm of the IC50 (pIC50) was 6.94.

As to `O=C(Nc1ccc(C2=CCN(Cc3ccccc3)CC2)cc1)N1CCc2ccccc2C1` [Example 52, N-[4-(1-benzyl-1,2,3,6-tetrahydropyridin-4-yl)phenyl]-3,4-dihydroisoquinoline-2(1H)-carboxamide], the negative logarithm of the IC50 (pIC50) is 7.09.

In the case of `O=C(NCCc1cccs1)c1ccc(NC(=O)N2CCc3ccccc3C2)cn1` [Example 22, N-(6-{[2-(2-thienyl)ethyl]carbamoyl}pyridin-3-yl)-3,4-dihydroisoquinoline-2(1H)-carboxamide], the negative logarithm of the IC50 (pIC50) was 6.51.

Take `CC(C)CCc1nc(-c2ccc(NC(=O)N3CCc4ccccc4C3)cc2)no1` [Example 58, N-{4-[5-(3-methylbutyl)-1,2,4-oxadiazol-3-yl]phenyl}-3,4-dihydroisoquinoline-2(1H)-carboxamide]: the negative-log IC50 (pIC50) is 5.90.

On to `O=C(CCN1CCCCC1)Nc1ccc(NC(=O)N2CCc3ccccc3C2)cc1` [Example 93, N-(4-{[3-(piperidin-1-yl)propanoyl]amino}phenyl)-3,4-dihydroisoquinoline-2(1H)-carboxamide], for which the negative logarithm of the IC50 (pIC50) was 6.28.

Regarding `O=C(Nc1ccc(NC(=O)N2CCc3ccccc3C2)cc1)c1ccn[nH]1` [Example 88, N-{4-[(1H-pyrazol-5-ylcarbonyl)amino]phenyl}-3,4-dihydroisoquinoline-2(1H)-carboxamide], the pIC50 was 6.87.

With `CSCCC(=O)Nc1ccc(NC(=O)N2CCc3ccccc3C2)cc1` [Example 76, N-(4-{[3-(methylthio)propanoyl]amino}phenyl)-3,4-dihydroisoquinoline-2(1H)-carboxamide], the pIC50 is 7.83.

Take `CC(C)(C)CC(=O)Nc1ccc(NC(=O)N2CCc3ccccc3C2)cc1` [Example 71, N-{4-[(3,3-dimethylbutanoyl)amino]phenyl}-3,4-dihydroisoquinoline-2(1H)-carboxamide]: the pIC50 is 8.56.

For `CN1CCN(CCC(=O)Nc2ccc(NC(=O)N3CCc4ccccc4C3)cc2)CC1` [Example 96, N-(4-{[3-(4-methylpiperazin-1-yl)propanoyl]amino}phenyl)-3,4-dihydroisoquinoline-2(1H)-carboxamide], the negative-log IC50 (pIC50) is 6.89.

As for `O=C(NCCCc1ccccc1)c1ccc(NC(=O)N2CCc3ccccc3C2)cc1` [Example 7, N-{4-[(3-phenylpropyl)carbamoyl]phenyl}-3,4-dihydroisoquinoline-2(1H)-carboxamide], the pIC50 was 7.68.

On to `O=C(CN1CCOCC1)Nc1ccc(NC(=O)N2CCc3ccccc3C2)cc1` [Example 94, N-{4-[(morpholin-4-ylacetyl)amino]phenyl}-3,4-dihydroisoquinoline-2(1H)-carboxamide], for which the negative-log IC50 (pIC50) is 7.16.

`CCCc1nc(-c2ccc(NC(=O)N3CCc4ccccc4C3)cc2)no1` [Example 56, N-[4-(5-propyl-1,2,4-oxadiazol-3-yl)phenyl]-3,4-dihydroisoquinoline-2(1H)-carboxamide]: the pIC50 was 6.72.

For `Cn1cc(-c2ccc(NC(=O)N3CCc4ccccc4C3)cc2)cn1` [Example 42, N-[4-(1-methyl-1H-pyrazol-4-yl)phenyl]-3,4-dihydroisoquinoline-2(1H)-carboxamide], the negative-log IC50 (pIC50) was 5.89.

On to `O=C(NCCc1ccccc1)c1ccc(NC(=O)N2CCc3ccccc3C2)cc1` [Example 15, N-{4-[(2-phenylethyl)carbamoyl]phenyl}-3,4-dihydroisoquinoline-2(1H)-carboxamide], for which the negative-log IC50 (pIC50) was 7.01.

Turning to `O=C(CC1CCCCC1)Nc1ccc(NC(=O)N2CCc3ccccc3C2)cc1` [Example 79, N-{4-[(cyclohexylacetyl)amino]phenyl}-3,4-dihydroisoquinoline-2(1H)-carboxamide], the negative-log IC50 (pIC50) was 8.28.

In the case of `O=C(Nc1ccc(-c2cnn(CCO)c2)cc1)N1CCc2ccccc2C1` [Example 41, N-{4-[1-(2-hydroxyethyl)-1H-pyrazol-4-yl]phenyl}-3,4-dihydroisoquinoline-2(1H)-carboxamide], the pIC50 is 6.09.

As for `CC(C)CCNC(=O)c1ccc(NC(=O)N2CCc3cnccc3C2)cc1` [Example 5, N-{4-[(3-methylbutyl)carbamoyl]phenyl}-3,4-dihydro-2,6-naphthyridine-2(1H)-carboxamide], the pIC50 was 7.80.

With `O=C(Nc1ccc(NC(=O)N2CCc3ccccc3C2)cc1)C1CCCCC1` [Example 78, N-{4-[(cyclohexylcarbonyl)amino]phenyl}-3,4-dihydroisoquinoline-2(1H)-carboxamide], the pIC50 was 7.18.
